Assay results reported in ChEMBL document CHEMBL4017471, “Discovery of novel aminobenzisoxazole derivatives as orally available factor IXa inhibitors” (Bioorg Med Chem Lett, 2017).
Values after ≈ are worked out from the molar mass of the structure shown.

Assays:
[1] = Apparent permeability of the compound at 5 uM after 5 hrs by PAMPA; type: physicochemical
[2] = Cmax in rat at 1 mg/kg, po administered as cassette dose; type: ADME, organism-based; set-up: dose 1 mg/kg, route oral; settings: in vivo
[3] = Unbound plasma concentration in human at 10 uM measured after 4 hrs by equilibrium dialysis method; type: ADME, cell-free
[4] = tested on: Plasma; experiment: Anticoagulant activity in human plasma assessed as concentration required to double activated partial thromboplastin time; type: functional
[5] = molecular target: Coagulation factor X (Homo sapiens, UniProt P00742)
Chain of Coagulation factor X (P00742 41-179 limits assumed): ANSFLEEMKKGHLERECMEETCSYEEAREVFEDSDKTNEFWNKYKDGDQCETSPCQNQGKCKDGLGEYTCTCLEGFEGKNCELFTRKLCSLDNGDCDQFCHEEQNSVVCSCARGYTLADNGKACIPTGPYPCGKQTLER
Chain of Coagulation factor X (P00742 235-488 limits assumed): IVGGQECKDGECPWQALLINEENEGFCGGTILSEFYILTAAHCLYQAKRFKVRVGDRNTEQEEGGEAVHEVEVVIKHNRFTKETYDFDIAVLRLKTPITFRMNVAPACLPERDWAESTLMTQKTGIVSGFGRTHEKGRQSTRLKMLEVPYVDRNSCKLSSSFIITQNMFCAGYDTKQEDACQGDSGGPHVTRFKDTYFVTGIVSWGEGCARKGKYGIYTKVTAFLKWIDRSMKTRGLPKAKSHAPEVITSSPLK
Description: Inhibition of human coagulation factor 10a

[6] = molecular target: Coagulation factor IX (Homo sapiens, UniProt P00740)
Chain of Coagulation factor IX (Homo sapiens, UniProt P00740) (P00740 47-191 limits assumed): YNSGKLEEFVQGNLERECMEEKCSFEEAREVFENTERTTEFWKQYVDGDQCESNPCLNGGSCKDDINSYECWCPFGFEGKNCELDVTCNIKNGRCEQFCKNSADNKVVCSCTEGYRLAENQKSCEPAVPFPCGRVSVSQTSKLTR
Chain of Coagulation factor IX (Homo sapiens, UniProt P00740) (P00740 227-461 limits assumed): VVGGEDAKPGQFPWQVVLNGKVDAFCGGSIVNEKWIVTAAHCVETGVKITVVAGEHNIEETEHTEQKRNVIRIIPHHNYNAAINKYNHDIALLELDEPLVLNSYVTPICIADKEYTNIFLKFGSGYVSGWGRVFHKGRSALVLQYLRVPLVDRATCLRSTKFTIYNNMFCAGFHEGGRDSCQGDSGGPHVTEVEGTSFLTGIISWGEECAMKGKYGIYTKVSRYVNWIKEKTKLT

[7] = molecular target: Coagulation factor IX (Rattus norvegicus, UniProt P16296); experiment: Inhibition of rat coagulation factor 9a
Chain of Coagulation factor IX (Rattus norvegicus, UniProt P16296) (P16296 40-185 limits assumed): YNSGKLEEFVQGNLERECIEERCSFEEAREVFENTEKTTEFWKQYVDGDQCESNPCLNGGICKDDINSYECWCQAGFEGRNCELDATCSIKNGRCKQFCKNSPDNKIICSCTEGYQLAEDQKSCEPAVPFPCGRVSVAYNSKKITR
Chain of Coagulation factor IX (Rattus norvegicus, UniProt P16296) (P16296 228-462 limits assumed): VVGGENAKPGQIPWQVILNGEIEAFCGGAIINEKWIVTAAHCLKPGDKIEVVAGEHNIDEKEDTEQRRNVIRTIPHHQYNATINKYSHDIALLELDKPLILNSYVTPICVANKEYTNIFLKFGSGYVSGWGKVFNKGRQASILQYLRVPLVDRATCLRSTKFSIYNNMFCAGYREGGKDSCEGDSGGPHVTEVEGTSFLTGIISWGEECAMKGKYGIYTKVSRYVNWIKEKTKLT

[8] = Solubility of the compound in phosphate buffer at pH 7.4 measured after 1.5 hrs by UV absorbance method; type: physicochemical
[9] = Apparent permeability in MDCK cells at 5 uM after 1 hr by LC-MS/MS method; type: ADME, cell-based, Canis lupus familiaris; settings: dog
[10] = Apparent permeability in MDCK2-MDR1 cells at 5 uM after 1 hr by LC-MS/MS method; type: ADME, cell-based, Canis lupus familiaris; settings: dog, MDCK-MDR1
[11] = Metabolic stability in human liver microsomes at 1 uM measured after 20 mins in presence of NADP+ by LC-MS/MS method; type: ADME, microsome; settings: read-out: Stability
[12] = Metabolic stability in rat liver microsomes at 1 uM measured after 20 mins in presence of NADP+ by LC-MS/MS method; type: ADME, microsome; settings: read-out: Stability
[13] = Metabolic stability in dog liver microsomes at 1 uM measured after 20 mins in presence of NADP+ by LC-MS/MS method; type: ADME, Canis lupus familiaris, microsome; settings: read-out: Stability
[14] = Unbound plasma concentration in rat at 10 uM measured after 4 hrs by equilibrium dialysis method; type: ADME, cell-free
[15] = Unbound plasma concentration in dog at 10 uM measured after 4 hrs by equilibrium dialysis method; type: ADME, cell-free, Canis lupus familiaris
[16] = Volume of distribution at steady state in rat at 1 mg/kg, iv; type: ADME, organism-based; settings: in vivo, read-out: Vdss
[17] = Total clearance in rat at 1 mg/kg, iv; type: ADME, organism-based; settings: in vivo
[18] = Half life in rat at 1 mg/kg, iv; type: ADME, organism-based; settings: in vivo
[19] = AUCt in rat at 1 mg/kg, iv; type: ADME, organism-based; settings: in vivo
[20] = Cmax in rat at 10 mg/kg, po; type: ADME, organism-based; set-up: dose 10 mg/kg, route oral; settings: in vivo
[21] = Tmax in rat at 10 mg/kg, po; type: ADME, organism-based; settings: in vivo
[22] = AUCt in rat at 10 mg/kg, po; type: ADME, organism-based; settings: in vivo
[23] = Oral bioavailability in rat at 10 mg/kg; type: ADME, organism-based; settings: in vivo
[24] = Volume of distribution at steady state in dog at 0.3 mg/kg, iv; type: ADME, organism-based, Canis lupus familiaris; settings: in vivo, read-out: Vdss
[25] = Total clearance in dog at 0.3 mg/kg, iv; type: ADME, organism-based, Canis lupus familiaris; settings: in vivo
[26] = Half life in dog at 0.3 mg/kg, iv; type: ADME, organism-based, Canis lupus familiaris; settings: in vivo
[27] = AUCt in dog at 0.3 mg/kg, iv; type: ADME, organism-based, Canis lupus familiaris; settings: in vivo
[28] = tested on: Plasma; experiment: Anticoagulant activity in rat plasma assessed as concentration required to double activated partial thromboplastin time; type: functional
[29] = tested on: Plasma; experiment: Effect on prothrombin time in human plasma assessed as concentration required to double prothrombin time; type: functional
[30] = tested on: Plasma; experiment: Effect on prothrombin time in rat plasma assessed as concentration required to double prothrombin time; type: functional
[31] = molecular target: T1, Cytochrome P450 1A2 (Homo sapiens, UniProt P05177); experiment: Inhibition of CYP1A2 in liver microsomes (unknown origin) assessed as formation of acetaminophen from phenacetin in presence of NADPH by LC-MS/MS analysis; type: ADME
T1 sequence (P05177 whole entry): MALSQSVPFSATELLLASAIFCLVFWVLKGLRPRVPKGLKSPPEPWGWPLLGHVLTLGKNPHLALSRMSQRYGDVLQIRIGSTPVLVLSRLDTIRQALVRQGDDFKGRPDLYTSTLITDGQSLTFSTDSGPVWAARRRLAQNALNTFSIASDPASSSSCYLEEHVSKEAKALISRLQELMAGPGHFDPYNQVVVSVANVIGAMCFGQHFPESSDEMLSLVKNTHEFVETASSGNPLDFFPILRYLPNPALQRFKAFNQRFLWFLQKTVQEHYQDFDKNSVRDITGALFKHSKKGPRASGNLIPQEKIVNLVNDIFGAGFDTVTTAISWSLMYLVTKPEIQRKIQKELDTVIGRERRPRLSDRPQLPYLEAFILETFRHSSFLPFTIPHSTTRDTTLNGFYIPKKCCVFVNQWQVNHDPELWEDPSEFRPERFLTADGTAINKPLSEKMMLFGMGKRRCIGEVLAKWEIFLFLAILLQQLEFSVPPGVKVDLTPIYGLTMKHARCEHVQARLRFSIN

[32] = molecular target: Cytochrome P450 2C9 (Homo sapiens, UniProt P11712); experiment: Inhibition of CYP2C9 in liver microsomes (unknown origin) assessed as formation of 4-hydroxydiclofenac from diclofenac in presence of NADPH by LC-MS/MS analysis; type: ADME
Chain of Cytochrome P450 2C9 (P11712 whole entry): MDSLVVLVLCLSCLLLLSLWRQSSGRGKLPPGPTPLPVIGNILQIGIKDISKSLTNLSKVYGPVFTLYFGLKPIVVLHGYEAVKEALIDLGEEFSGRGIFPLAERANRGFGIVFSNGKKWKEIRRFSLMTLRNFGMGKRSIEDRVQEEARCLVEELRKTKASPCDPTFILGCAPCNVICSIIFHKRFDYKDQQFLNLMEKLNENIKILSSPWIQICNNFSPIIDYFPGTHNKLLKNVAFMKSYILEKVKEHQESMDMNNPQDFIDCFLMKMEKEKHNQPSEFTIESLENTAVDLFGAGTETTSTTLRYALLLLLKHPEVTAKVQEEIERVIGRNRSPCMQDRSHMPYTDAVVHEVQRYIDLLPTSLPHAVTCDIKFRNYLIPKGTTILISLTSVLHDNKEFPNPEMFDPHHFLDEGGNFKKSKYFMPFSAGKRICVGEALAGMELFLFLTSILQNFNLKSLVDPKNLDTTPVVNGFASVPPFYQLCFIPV

[33] = molecular target: Cytochrome P450 2C19 (Homo sapiens, UniProt P33261); experiment: Inhibition of CYP2C19 in liver microsomes (unknown origin) assessed as formation of 4-hydroxymephenytoin from S-mephenytoin in presence of NADPH by LC-MS/MS analysis; type: ADME
Chain of Cytochrome P450 2C19 (P33261 whole entry): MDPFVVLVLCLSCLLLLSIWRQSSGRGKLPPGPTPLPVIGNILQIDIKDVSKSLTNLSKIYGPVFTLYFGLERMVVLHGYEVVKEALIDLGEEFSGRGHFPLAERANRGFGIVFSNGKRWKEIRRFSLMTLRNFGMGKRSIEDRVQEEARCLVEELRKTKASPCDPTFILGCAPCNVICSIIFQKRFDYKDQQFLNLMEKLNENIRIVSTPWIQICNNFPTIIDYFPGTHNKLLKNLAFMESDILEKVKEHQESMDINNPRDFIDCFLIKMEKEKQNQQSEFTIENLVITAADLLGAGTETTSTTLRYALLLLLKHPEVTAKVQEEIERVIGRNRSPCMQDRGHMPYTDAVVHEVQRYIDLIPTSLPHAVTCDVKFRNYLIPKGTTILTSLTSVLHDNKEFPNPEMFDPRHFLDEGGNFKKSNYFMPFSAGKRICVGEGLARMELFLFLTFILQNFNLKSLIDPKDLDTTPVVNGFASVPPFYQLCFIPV

[34] = molecular target: Cytochrome P450 2D6 (Homo sapiens, UniProt P10635); experiment: Inhibition of CYP2D6 in liver microsomes (unknown origin) assessed as formation of 1-hydroxybufuralol from bufuralol in presence of NADPH by LC-MS/MS analysis; type: ADME
Chain of Cytochrome P450 2D6 (P10635 whole entry): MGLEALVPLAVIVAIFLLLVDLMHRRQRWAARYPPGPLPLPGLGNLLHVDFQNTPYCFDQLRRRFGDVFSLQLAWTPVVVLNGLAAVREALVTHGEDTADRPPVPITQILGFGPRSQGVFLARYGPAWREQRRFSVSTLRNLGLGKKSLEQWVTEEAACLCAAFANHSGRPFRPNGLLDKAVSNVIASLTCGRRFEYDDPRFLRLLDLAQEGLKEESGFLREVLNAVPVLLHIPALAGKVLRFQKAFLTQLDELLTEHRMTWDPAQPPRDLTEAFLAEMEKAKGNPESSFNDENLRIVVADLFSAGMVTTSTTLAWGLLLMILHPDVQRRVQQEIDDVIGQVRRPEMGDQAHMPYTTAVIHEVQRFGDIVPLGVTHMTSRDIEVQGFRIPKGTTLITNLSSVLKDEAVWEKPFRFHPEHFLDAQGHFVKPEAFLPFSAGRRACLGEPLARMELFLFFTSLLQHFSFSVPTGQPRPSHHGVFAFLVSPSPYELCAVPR

[35] = molecular target: T2, Cytochrome P450 3A4 (Homo sapiens, UniProt P08684); experiment: Inhibition of CYP3A4 in liver microsomes (unknown origin) assessed as formation of 1-hydroxymidazolam from midazolam in presence of NADPH by LC-MS/MS analysis; type: ADME
T2 sequence (P08684 whole entry): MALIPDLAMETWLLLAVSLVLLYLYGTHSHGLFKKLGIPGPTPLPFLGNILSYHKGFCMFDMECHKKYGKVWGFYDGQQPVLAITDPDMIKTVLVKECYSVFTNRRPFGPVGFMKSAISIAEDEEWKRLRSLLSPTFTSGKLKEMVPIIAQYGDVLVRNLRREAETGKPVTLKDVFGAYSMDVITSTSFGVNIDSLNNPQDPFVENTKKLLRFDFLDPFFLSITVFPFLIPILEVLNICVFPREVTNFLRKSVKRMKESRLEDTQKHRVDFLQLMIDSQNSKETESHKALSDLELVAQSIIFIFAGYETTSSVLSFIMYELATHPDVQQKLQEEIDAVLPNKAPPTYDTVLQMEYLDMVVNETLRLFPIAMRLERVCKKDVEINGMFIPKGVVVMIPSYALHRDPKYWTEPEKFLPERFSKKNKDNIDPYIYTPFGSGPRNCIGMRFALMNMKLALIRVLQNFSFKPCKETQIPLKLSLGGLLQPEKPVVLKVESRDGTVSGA

[36] = molecular target: T1, Cytochrome P450 1A2; experiment: Induction of CYP1A2 in hepatocytes (unknown origin) assessed as 7-ethoxyresorufin O-dealkylation at 0.3 to 10 uM treated for 3 days; type: ADME, cell-based; settings: 72 h
[37] = molecular target: T2, Cytochrome P450 3A4; experiment: Induction of CYP3A4 in hepatocytes (unknown origin) assessed as midazolam 1-hydroxylation at 0.3 to 10 uM treated for 3 days; type: ADME, cell-based; settings: 72 h

Compound `Nc1noc2c(N3CC[C@@H](NC(=O)c4ccc(-n5cnnc5C(F)F)cc4Cl)C3)ncc(Cl)c12` has a Papp at 5 h, 5 µM [1] of 2.7 ×10⁻⁶ cm/s, a Cmax [2] of 100 ng/mL and a fraction unbound at 4 h, 10 µM [3] of 0.012. For the same compound, the 2aPTT [4] was 32 µM, the IC50 [5] was greater than 100000 nM and the IC50 [6] was 45 nM.
With `Cc1ncn(-c2ccc(C(=O)N[C@H]3[C@H]4CC[C@H]3N(c3ncc(Cl)c5cnoc35)C4)c(Cl)c2)n1` the Papp at 5 h, 5 µM [1] was 6.5 ×10⁻⁶ cm/s, the fraction unbound at 4 h, 10 µM [3] was 0.041 and the 2aPTT [4] was 5.8 µM. The IC50 [7] was 3.7 nM, the solubility at 1.5 h [8] was 29 µM (≈ 14 µg/mL) and the Papp at 1 h, 5 µM [9] was 14.5 ×10⁻⁶ cm/s. For the same compound, the Papp at 1 h, 5 µM [10] was 5.8 ×10⁻⁶ cm/s, the remaining at 20 min, 1 µM [11] was 11% and the remaining at 20 min, 1 µM [12] was 24%. It also gave a remaining at 20 min, 1 µM [13] of 11%, a fraction unbound at 4 h, 10 µM [14] of 0.051 and a fraction unbound at 4 h, 10 µM [15] of 0.054. It also gave a Vd [16] of 0.9 L/kg, a clearance [17] of 16.5 mL/min/kg and a half-life [18] of 0.8 h. The AUC(0-t) [19] was 1010 ng·h/mL, the Cmax [20] was 1600 ng/mL and the Tmax [21] was 1 h. It also gave an AUC(0-t) [22] of 5150 ng·h/mL, a bioavailability [23] of 51% and a Vd [24] of 1.3 L/kg. For the same compound, the clearance [25] was 3.5 mL/min/kg, the half-life [26] was 4.7 h and the AUC(0-t) [27] was 1410 ng·h/mL. It also gave a 2aPTT [28] of 6.2 µM, a 2PT [29] greater than 200 µM and a 2PT [30] greater than 200 µM. The IC50 [31] was greater than 10000 nM, the IC50 [32] was greater than 10000 nM and the IC50 [33] was greater than 10000 nM. The IC50 [34] was greater than 10000 nM, the IC50 [35] was greater than 10000 nM and the Activity [36] was “Not Active”. The Activity [37] was “Not Active”, the IC50 [5] was 31000 nM and the IC50 [6] was 4.9 nM.
In the case of `Cc1cc2c(N)noc2c(N2CC[C@@H](NC(=O)c3ccc(-n4cnnc4)cc3Cl)C2)n1`, the IC50 [5] is reported as greater than 100000 nM and the IC50 [6] is reported as 41 nM.
Work on `Nc1noc2c(N3CC[C@@H](NC(=O)c4ccc(-n5cnnc5)cc4Cl)C3)ncc(Cl)c12` yielded a Papp at 5 h, 5 µM [1] of 0.7 ×10⁻⁶ cm/s, a Cmax [2] of 120 ng/mL and a fraction unbound at 4 h, 10 µM [3] of 0.012. It also gave an IC50 [5] of 78000 nM and an IC50 [6] of 31 nM.
Compound `Nc1noc2c(N3CC[C@@H](NC(=O)c4ccc(-n5cnnc5)cc4Cl)C3)ccc(F)c12` has an IC50 [5] greater than 100000 nM and an IC50 [6] of 172 nM.
Work on `Cc1ccc(N2CCC(C)(NC(=O)c3ccc(-n4cnnc4)cc3Cl)C2)c([N+](=O)[O-])c1` (stereo not drawn) yielded an IC50 [5] greater than 100000 nM and an IC50 [6] of 2200 nM.
